From patent US11739098B2 (BRISTOL-MYERS SQUIBB COMPANY, priority 2017, dated 2023)

How the values were obtained:
Assay type in all cases: cell-based
human TLR8 = target: T1, human TLR8 (Homo sapiens, UniProt Q9NR97); test: TLR8 inhibition reporter assay (HEK-Blue cells, SEAP reporter, R848 stimulation); details: HEK-Blue cells overexpressing human TLR8, SEAP reporter, R848 15.9 μM
T1 construct: host or cells: HEK-Blue cells (HEK293-derived reporter line)
T1 sequence (Q9NR97 27-1041): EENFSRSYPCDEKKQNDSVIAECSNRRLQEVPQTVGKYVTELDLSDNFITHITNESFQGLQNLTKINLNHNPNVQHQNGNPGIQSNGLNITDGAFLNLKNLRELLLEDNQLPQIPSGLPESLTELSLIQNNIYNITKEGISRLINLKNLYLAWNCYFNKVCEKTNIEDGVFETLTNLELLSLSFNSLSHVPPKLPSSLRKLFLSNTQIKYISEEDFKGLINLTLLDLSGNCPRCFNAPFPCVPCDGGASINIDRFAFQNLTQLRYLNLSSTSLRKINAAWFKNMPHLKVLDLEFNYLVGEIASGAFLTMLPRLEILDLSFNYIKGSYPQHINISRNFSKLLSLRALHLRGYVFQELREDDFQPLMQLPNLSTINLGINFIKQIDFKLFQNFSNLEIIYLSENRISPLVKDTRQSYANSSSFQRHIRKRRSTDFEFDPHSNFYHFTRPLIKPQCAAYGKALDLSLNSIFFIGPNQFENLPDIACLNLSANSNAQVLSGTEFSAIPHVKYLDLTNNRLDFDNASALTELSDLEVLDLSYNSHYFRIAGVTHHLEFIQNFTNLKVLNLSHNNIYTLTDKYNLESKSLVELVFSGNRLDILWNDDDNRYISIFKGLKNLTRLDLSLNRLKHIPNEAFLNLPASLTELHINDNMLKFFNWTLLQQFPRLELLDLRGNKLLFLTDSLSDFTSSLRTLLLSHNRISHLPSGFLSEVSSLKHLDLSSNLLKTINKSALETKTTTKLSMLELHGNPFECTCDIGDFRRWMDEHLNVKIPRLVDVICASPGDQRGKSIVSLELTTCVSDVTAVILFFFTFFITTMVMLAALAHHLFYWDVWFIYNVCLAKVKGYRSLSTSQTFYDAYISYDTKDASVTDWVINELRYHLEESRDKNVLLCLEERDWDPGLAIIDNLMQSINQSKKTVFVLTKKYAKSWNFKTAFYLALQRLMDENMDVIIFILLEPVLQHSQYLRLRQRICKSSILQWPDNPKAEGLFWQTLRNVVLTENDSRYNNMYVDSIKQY
Summary of the method: (§1)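 After 22 h at 37 °C, SEAP secretion was measured from human TLR7-, TLR8- or TLR9-expressing HEK-Blue reporter cells given compound (0.05 nM–50 μM) 30 min before agonist: 7.5 μM gardiquimod, 15.9 μM R848 or 5 nM ODN2006 respectively. Percent inhibition referenced to agonist-plus-DMSO and known-inhibitor wells.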

human TLR9 = target: T2, human TLR9 (Homo sapiens, UniProt Q9NR96); test: TLR9 inhibition reporter assay (HEK-Blue cells, SEAP reporter, ODN2006 stimulation); details: HEK-Blue cells overexpressing human TLR9, SEAP reporter, ODN2006 5 nM
T2 construct: host or cells: HEK-Blue cells (HEK293-derived reporter line)
T2 sequence (Q9NR96 26-1032): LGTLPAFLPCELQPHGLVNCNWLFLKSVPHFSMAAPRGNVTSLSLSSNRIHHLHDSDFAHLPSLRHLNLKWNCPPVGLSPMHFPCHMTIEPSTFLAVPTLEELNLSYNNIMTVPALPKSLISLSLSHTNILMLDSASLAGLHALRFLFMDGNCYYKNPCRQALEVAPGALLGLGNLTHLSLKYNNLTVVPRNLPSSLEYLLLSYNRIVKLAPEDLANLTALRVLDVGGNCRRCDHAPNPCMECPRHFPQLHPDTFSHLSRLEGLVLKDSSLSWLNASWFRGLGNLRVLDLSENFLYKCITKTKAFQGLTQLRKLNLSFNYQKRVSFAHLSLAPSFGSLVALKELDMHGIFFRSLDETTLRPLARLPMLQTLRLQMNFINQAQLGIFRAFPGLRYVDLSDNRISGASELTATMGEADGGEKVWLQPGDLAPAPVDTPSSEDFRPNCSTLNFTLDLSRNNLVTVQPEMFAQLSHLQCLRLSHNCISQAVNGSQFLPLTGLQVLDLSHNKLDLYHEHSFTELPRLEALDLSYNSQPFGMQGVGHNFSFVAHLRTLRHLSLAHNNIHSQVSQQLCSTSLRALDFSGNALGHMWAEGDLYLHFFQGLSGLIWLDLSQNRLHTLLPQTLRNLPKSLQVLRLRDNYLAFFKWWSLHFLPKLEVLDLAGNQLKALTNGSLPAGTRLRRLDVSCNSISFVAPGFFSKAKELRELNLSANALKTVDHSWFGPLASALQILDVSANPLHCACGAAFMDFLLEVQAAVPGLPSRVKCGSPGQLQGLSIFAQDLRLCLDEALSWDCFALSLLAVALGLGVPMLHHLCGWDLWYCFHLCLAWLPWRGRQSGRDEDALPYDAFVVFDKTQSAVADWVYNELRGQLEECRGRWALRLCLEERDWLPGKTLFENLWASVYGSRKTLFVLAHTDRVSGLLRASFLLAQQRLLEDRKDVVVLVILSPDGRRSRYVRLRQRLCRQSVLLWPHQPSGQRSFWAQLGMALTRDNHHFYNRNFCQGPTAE
Summary of the method: as §1

human TLR7 = target: T3, human TLR7 (Homo sapiens, UniProt Q9NYK1); test: TLR7 inhibition reporter assay (HEK-Blue cells, SEAP reporter, gardiquimod stimulation); details: HEK-Blue cells overexpressing human TLR7, SEAP reporter, gardiquimod 7.5 μM
T3 construct: host or cells: HEK-Blue cells (HEK293-derived reporter line)
T3 sequence (Q9NYK1 27-1049): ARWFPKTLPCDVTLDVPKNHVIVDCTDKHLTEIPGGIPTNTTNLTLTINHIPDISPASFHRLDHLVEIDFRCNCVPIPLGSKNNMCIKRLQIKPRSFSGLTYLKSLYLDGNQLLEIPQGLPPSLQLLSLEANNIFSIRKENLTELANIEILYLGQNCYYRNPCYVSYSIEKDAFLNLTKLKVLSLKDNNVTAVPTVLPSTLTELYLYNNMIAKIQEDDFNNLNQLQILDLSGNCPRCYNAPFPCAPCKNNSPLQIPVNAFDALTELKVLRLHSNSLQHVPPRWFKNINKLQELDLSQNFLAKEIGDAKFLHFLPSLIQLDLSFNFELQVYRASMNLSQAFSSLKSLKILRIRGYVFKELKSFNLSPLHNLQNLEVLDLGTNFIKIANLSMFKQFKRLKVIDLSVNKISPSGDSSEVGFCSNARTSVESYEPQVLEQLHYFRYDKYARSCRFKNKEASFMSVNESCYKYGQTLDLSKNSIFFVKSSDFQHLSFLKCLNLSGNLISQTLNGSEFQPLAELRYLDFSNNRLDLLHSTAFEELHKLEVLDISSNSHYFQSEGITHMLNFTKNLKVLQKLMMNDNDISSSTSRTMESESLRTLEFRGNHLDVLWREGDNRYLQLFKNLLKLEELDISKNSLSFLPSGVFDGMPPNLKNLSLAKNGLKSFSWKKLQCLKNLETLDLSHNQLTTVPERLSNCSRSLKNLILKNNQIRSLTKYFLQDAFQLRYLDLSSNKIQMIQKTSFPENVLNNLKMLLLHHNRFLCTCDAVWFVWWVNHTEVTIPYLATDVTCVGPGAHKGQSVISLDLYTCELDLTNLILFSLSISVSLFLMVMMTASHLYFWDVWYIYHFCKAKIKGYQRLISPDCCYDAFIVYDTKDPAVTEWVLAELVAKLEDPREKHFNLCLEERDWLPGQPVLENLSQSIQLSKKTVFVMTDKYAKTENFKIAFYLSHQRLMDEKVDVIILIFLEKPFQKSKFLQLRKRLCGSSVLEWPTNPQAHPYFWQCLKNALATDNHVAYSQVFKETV
Summary of the method: as §1

## Cc1c(-c2[nH]c3ccc(C4CCN(C5CCOCC5)CC4)cc3c2C(C)C)nn2ncnc2c1C [Example 684, 6-(3-isopropyl-5-(1-(tetrahydro-2H-pyran-4-yl)piperidin-4-yl)-1H-indol-2-yl)-7,8-dimethyl-[1,2,4]triazolo[1,5-b]pyridazine]
Human TLR8
  IC50: < 100 nM
Human TLR9
  IC50: 1000 to 50000 nM
Human TLR7
  IC50: < 100 nM

## CC(C)c1c(-c2ccc3nccn3c2)[nH]c2ccc(C3CCN(C4CCN(C(C)C)CC4)CC3)cc12 [Example 803, 6-(3-isopropyl-5-(1′-isopropyl-[1,4′-bipiperidin]-4-yl)-1H-indol-2-yl)imidazo[1,2-a]pyridine]
Human TLR8
  IC50: < 100 nM
Human TLR9
  IC50: 100 to 1000 nM
Human TLR7
  IC50: < 100 nM

## CC(C)c1c(-c2cc(C(F)(F)F)c3nccn3c2)[nH]c2ccc(C3CCN(Cc4cnn(C)c4)CC3)cc12 [Example 933, 6-(3-isopropyl-5-(1-((1-methyl-1H-pyrazol-4-yl)methyl)piperidin-4-yl)-1H-indol-2-yl)-8-(trifluoromethyl)imidazo[1,2-a]pyridine]
Human TLR8
  IC50: < 100 nM
Human TLR9
  IC50: 100 to 1000 nM
Human TLR7
  IC50: < 100 nM

## Cc1cc(-c2[nH]c3ccc(C4CCN(CCS(C)(=O)=O)CC4)cc3c2C(C)C)cc2cnnn12 [Example 795, 5-(3-isopropyl-5-(1-(2-(methylsulfonyl)ethyl)piperidin-4-yl)-1H-indol-2-yl)-7-methyl-[1,2,3]triazolo[1,5-a]pyridine]
Human TLR8
  IC50: < 100 nM
Human TLR9
  IC50: 1000 to 50000 nM
Human TLR7
  IC50: < 100 nM

## Cc1cc2nnnn2cc1-c1[nH]c2ccc(C3CCN(Cc4ncn(C)n4)CC3)cc2c1C(C)C [Example 886, 6-(3-isopropyl-5-(1-((1-methyl-1H-1,2,4-triazol-3-yl)methyl)piperidin-4-yl)-1H-indol-2-yl)-7-methyltetrazolo[1,5-a]pyridine]
Human TLR8
  IC50: < 100 nM
Human TLR9
  IC50: 1000 to 50000 nM
Human TLR7
  IC50: < 100 nM

## FC(F)Cc1c(-c2ccc3nccn3c2)[nH]c2ccc(C3CCN(Cc4c[nH]cn4)CC3)cc12 [Example 941, 6-(5-(1-((1H-imidazol-4-yl)methyl)piperidin-4-yl)-3-(2,2-difluoroethyl)-1H-indol-2-yl)imidazo[1,2-a]pyridine]
Human TLR8
  IC50: 100 to 1000 nM
Human TLR9
  IC50: 100 to 1000 nM
Human TLR7
  IC50: 100 to 1000 nM

## Cc1cn2cc(-c3[nH]c4ccc(C5CCN(CC(=O)N(C)C)CC5)cc4c3C(C)C)cc(C(F)(F)F)c2n1 [Example 376, 2-(4-(3-isopropyl-2-(2-methyl-8-(trifluoromethyl)imidazo[1,2-a]pyridin-6-yl)-1H-indol-5-yl)piperidin-1-yl)-N,N-dimethylacetamide]
Human TLR8
  IC50: 100 to 1000 nM
Human TLR9
  IC50: 100 to 1000 nM
Human TLR7
  IC50: < 100 nM

## CC(C)c1c(-c2ccc3cnnn3c2)[nH]c2ccc(C3CCN(C(=O)CN(C)C)CC3)cc12 [Example 464, 1-(4-(2-([1,2,3]triazolo[1,5-a]pyridin-6-yl)-3-isopropyl-1H-indol-5-yl)piperidin-1-yl)-2-(dimethylamino)ethan-1-one]
Human TLR8
  IC50: 100 to 1000 nM
Human TLR9
  IC50: 100 to 1000 nM
Human TLR7
  IC50: 100 to 1000 nM

## CNC(=O)CN1CCC(c2ccc3[nH]c(-c4cc(C)n5ccnc5c4)c(C(C)C)c3c2)CC1 [Example 355, 2-(4-(3-isopropyl-2-(5-methylimidazo[1,2-a]pyridin-7-yl)-1H-indol-5-yl)piperidin-1-yl)-N-methylacetamide]
Human TLR8
  IC50: 100 to 1000 nM
Human TLR9
  IC50: 100 to 1000 nM
Human TLR7
  IC50: 100 to 1000 nM

## CNCC(=O)N1CCC(c2ccc3[nH]c(-c4cn5ccnc5c(C)c4C)c(C(C)C)c3c2)CC1 [Example 548, 1-(4-(2-(7,8-dimethylimidazo[1,2-a]pyridin-6-yl)-3-isopropyl-1H-indol-5-yl)piperidin-1-yl)-2-(methylamino)ethan-1-one]
Human TLR8
  IC50: 100 to 1000 nM
Human TLR9
  IC50: 100 to 1000 nM
Human TLR7
  IC50: < 100 nM

## COc1cc(-c2[nH]c3ccc(C4CCN(Cc5cnn[nH]5)CC4)cc3c2C(C)C)nn2ncnc12 [Example 860, 6-(5-(1-((1H-1,2,3-triazol-5-yl)methyl)piperidin-4-yl)-3-isopropyl-1H-indol-2-yl)-8-methoxy-[1,2,4]triazolo[1,5-b]pyridazine]
Human TLR8
  IC50: < 100 nM
Human TLR9
  IC50: 1000 to 50000 nM
Human TLR7
  IC50: < 100 nM

## Cc1cc(-c2[nH]c3ccc(C4CCNCC4)cc3c2C(C)C)c2[nH]ncc2n1 [Example 49, 7-(3-isopropyl-5-(piperidin-4-yl)-1H-indol-2-yl)-5-methyl-1H-pyrazolo[4,3-b]pyridine]
Human TLR8
  IC50: < 100 nM
Human TLR9
  IC50: 1000 to 50000 nM
Human TLR7
  IC50: < 100 nM

## CC(C)c1c(-c2ccc3ncoc3c2)[nH]c2ccc(C3CCN(CC(=O)N(C)C)CC3)cc12 [Example 288, 2-(4-(2-(benzo[d]oxazol-6-yl)-3-isopropyl-1H-indol-5-yl)piperidin-1-yl)-N,N-dimethylacetamide]
Human TLR8
  IC50: < 100 nM
Human TLR9
  IC50: 1000 to 50000 nM
Human TLR7
  IC50: < 100 nM

## CC(C)c1c(-c2ccnc3[nH]ncc23)[nH]c2ccc(C3CCN(Cc4cc(F)cnc4Cl)CC3)cc12 [Example 913, 4-(5-(1-((2-chloro-5-fluoropyridin-3-yl)methyl)piperidin-4-yl)-3-isopropyl-1H-indol-2-yl)-1H-pyrazolo[3,4-b]pyridine]
Human TLR8
  IC50: 100 to 1000 nM
Human TLR9
  IC50: > 50000 nM
Human TLR7
  IC50: 100 to 1000 nM
